Results as given in ChEMBL document CHEMBL5523733, “Small Molecule Targeting PPM1A Activates Autophagy for Mycobacterium tuberculosis Host-Directed Therapy” (J Med Chem, 2024).
pIC50, pKi: −log10 of the molar value. Calls of active or inactive are those of the source. No cut-off for these calls is given here.

How the values were obtained:
[1] = biological target: T1, Protein phosphatase 1A (Homo sapiens, UniProt P35813); assay: Inhibition of recombinant human PPM1A using pNPP as substrate preincubated for 15 mins followed by substrate addition measured after 20 mins by absorbance based assay
T1 sequence (P35813 whole entry): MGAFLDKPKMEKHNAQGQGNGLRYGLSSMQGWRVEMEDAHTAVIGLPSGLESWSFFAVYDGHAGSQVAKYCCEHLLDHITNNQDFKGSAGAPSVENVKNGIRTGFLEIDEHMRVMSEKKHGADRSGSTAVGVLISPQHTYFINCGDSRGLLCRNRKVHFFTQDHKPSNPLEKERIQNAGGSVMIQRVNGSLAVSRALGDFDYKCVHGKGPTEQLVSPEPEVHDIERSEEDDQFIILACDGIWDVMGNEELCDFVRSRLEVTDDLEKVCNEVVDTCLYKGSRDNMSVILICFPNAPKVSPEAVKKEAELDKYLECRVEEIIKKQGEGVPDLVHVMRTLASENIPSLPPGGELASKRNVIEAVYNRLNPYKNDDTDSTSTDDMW

[2] = Cytotoxicity against human Caco-2 cells by resazurin dye based assay; assay type: toxicity, cell-based
[3] = Cytotoxicity against human THP-1 cells by resazurin dye based assay; assay type: toxicity, cell-based
[4] = test system: THP-1; assay: Induction of DNA damage in human THP-1 macrophages assessed as increase in gamma-H2AX at 0.1 to 10 uM incubated for 24 hrs by Western blot analysis; assay type: toxicity, cell-based; conditions: thp-1, 24 h, dose 0.1-10 µM
[5] = test system: THP-1; assay: Induction of DNA damage in human THP-1 monocytes assessed as increase in gamma-H2AX at 0.1 to 10 uM incubated for 24 hrs by Western blot analysis; assay type: toxicity, cell-based; conditions: thp-1, 24 h, dose 0.1-10 µM
[6] = test system: THP-1; assay: Cytotoxicity against human THP-1 macrophages assessed as cell viability at 0.1 to 10 uM incubated for 24 hrs by flow cytometry; assay type: toxicity, cell-based; conditions: thp-1, 24 h, dose 0.1-10 µM
[7] = test system: dsDNA; assay: Binding affinity to dsDNA (unknown origin) assessed as reduction in fluorescence intensity at 5 uM; assay type: nucleic-acid assay
[8] = biological target: T1, Protein phosphatase 1A; assay: Inhibition of PPM1A (unknown origin)
[9] = test system: THP-1; assay: Cytotoxicity against human THP-1 monocytes assessed as cell viability at 0.1 to 10 uM incubated for 24 hrs by flow cytometry; assay type: toxicity, cell-based; conditions: thp-1, 24 h, dose 0.1-10 µM

SMILES | pIC50 [1] | also measured
COc1cc2c[n+](CCO)c3ccc(F)cc3c2cc1-c1ccc(F)cc1 | < 4.70 | –
COc1cc2c[n+](CCO)c3ccc(F)cc3c2cc1-c1cc(C)cc(C)c1 | < 4.70 | –
COc1ccc2c(c1)c[n+](CCO)c1ccc(Br)cc21 | 5.35 | CC50 [2]: 185 µM; CC50 [3]: 68 µM
CC(C)COc1ccc2c(c1)c[n+](CCO)c1ccc(F)cc21 | < 4.70 | –
OCC[n+]1cc2cc3c(cc2c2cc(F)ccc21)OCO3 | < 4.70 | –
COC(=O)c1cccc(-c2cc3c(cc2OC)c[n+](CCO)c2ccc(F)cc32)c1 | < 4.70 | –
COc1cc2c[n+](CCO)c3ccc(F)cc3c2cc1C#Cc1ccccc1 | < 5.00 | –
COc1ccc2c(c1)c[n+](CCO)c1ccc(OC)cc21 | 5.59 | CC50 [2]: > 200 µM; CC50 [3]: 47.2 µM
COc1cc2c[n+](CCO)c3ccc(F)cc3c2cc1OC | < 4.70 | –
COc1cc2c[n+](CCO)c3ccc(F)cc3c2cc1I | < 4.70 | –
COc1ccc2cc[n+](CCO)cc2c1 | < 4.70 | –
COc1ccc2c(c1)c[n+](CCO)c1cc(F)ccc21 | < 4.70 | –
COc1ccc2c(c1)c[n+](CCCO)c1ccc(F)cc21 | < 5.00 | –
COc1ccc2c(c1)c[n+](CCO)c1ccccc21 | < 4.70 | –
COc1ccc2c(c1)c[n+](C(C)CO)c1ccc(F)cc21 (stereo not drawn) | < 5.00 | –
COc1ccc2c(c1)c[n+](C(CO)CO)c1ccc(F)cc21 | < 4.70 | –
COc1cc2c[n+](CCO)c3ccc(F)cc3c2cc1C1CC1 | < 4.70 | –
COc1ccc2c(c1)c[n+](CCO)c1ccc(F)cc21.[Br-] | 5.92 | Activity [4]: Non-Toxic; Activity [5]: Non-Toxic; Activity [6]: Non-Toxic; Activity [7]: inactive; CC50 [2]: > 200 µM; CC50 [3]: 94.8 µM; pIC50 [8]: 5.92; pKi [8]: 6.08; Activity [9]: Non-Toxic
COc1ccc2c(c1)c[n+](CC(C)O)c1ccc(F)cc21 (stereo not drawn) | < 4.70 | –
CCOc1ccc2c(c1)c1ccc(OC)cc1c[n+]2CCO | < 4.70 | –
